From patent publication US8933113B2 (Merck Sharp & Dohme Corp., priority 2011, dated 2015)

Target: T1, full-length human Mineralocorticoid Receptor (MR) (Homo sapiens, UniProt P08235)
T1 construct: host or cells: PathHunter CHO-K1 cells
T1 sequence (P08235 1-984): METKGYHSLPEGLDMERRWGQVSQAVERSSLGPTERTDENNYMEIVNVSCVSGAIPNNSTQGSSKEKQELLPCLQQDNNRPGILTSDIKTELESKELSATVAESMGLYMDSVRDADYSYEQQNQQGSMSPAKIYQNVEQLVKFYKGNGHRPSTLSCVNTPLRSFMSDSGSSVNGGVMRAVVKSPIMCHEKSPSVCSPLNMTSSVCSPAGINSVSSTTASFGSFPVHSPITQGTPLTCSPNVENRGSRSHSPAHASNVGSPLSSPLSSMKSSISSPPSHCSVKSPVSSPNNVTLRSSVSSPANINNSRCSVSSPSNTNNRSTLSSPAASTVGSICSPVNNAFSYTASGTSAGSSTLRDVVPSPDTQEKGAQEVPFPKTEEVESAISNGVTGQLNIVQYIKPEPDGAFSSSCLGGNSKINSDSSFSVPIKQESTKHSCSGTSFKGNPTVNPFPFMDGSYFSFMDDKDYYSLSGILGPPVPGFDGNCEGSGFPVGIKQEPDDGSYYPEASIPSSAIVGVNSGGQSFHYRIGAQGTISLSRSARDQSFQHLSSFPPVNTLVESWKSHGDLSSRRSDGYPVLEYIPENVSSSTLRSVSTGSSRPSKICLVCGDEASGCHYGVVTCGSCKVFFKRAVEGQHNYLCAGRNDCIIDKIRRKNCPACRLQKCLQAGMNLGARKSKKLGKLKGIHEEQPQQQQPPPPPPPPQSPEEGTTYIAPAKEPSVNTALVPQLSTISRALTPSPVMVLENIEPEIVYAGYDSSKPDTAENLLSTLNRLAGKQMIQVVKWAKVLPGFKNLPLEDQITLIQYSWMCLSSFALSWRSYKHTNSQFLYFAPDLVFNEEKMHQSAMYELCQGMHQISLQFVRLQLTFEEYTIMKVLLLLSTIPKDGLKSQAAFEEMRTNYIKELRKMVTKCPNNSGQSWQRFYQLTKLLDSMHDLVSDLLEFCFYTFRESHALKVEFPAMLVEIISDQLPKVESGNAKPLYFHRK
Experiment: human MR NH Pro assay (PathHunter Protein:Protein interaction assay), MR antagonist activity
Assay type: cell-based
Conditions: PathHunter CHO-K1 cells overexpressing human MR; aldosterone about 0.3 nM; 6 hours at 37° C.; luminescence; read-out: Primary Assay IP rating (IP = inflection point for a given dose-response titration curve)
Text: The activity of the compounds of the present invention regarding mineralocorticoid receptor antagonism can be evaluated using the following assay.
Assessment of MR Potency in HMR NH Pro Assay
The human MR NH Pro assay is a commercially available PathHunter™ Protein:Protein interaction assay (DiscoveRx; http://www.discoverx.com/nhrs/prod-nhrs.php) that measures the ability of compounds to antagonize full-length human Mineralocorticoid Receptor (MR) binding to a coactivator peptide.
6. Test compounds are titrated starting at 4.4 mM, 10-point titration in 1:3 dilution.
3. Add 5 μL 6× agonist (final aldosterone concentration should be about 0.3 nM to about 1.0 nM) to all wells (using the PlateMate Plus.)
• (ThermoFisher) (except those wells in columns 23 and 24) 4. Add 5 uL of assay media to all wells in column 23 and 24. 5. Incubate 6 hrs at 37° C., 5% CO2. 6. Add 15 uL 3× DiscoveRx detection reagent to each well. 7. Incubate 1 hour at room temperature (keep plates stored in the dark). 8. Read plates on Envision (PerkinElmer) luminesence plate reader and analyze using ADA.

Row | IC50 [nM] | Structure (SMILES)
1 | < 100 | CCC(C=C(C)C#N)(c1ccc(Cl)cc1)n1ccc2c(NS(C)(=O)=O)cccc21 (mixture of isomers) [Compound 131, N-(1-(3-(4-chlorophenyl)-5-cyanohex-4-en-3-yl)-1H-indol-4-yl)methanesulfonamide]
2 | < 100 | CCC(CO)(c1ccc(Cl)cc1)n1ncc2c(NS(C)(=O)=O)cccc21 (single isomer, unassigned) [Compound 88, N-(1-(2-(4-chlorophenyl)-1-hydroxybutan-2-yl)-1H-indazol-4-yl)methanesulfonamide]
3 | < 100 | CCC(c1ccc(Cl)cc1)(n1ccc2c(NS(C)(=O)=O)cc(F)cc21)C(C)(C)O (single isomer, unassigned) [Compound 90, N-(1-(3-(4-chlorophenyl)-2-hydroxy-2-methylpentan-3-yl)-6-fluoro-1H-indol-4-yl)methane sulfonamide]
4 | < 100 | CCC(c1ccc(Cl)cc1)(n1ccc2c(NS(C)(=O)=O)cccc21)C(C)(C)O (single isomer, unassigned) [Compound 91, N-(1-(3-(4-chlorophenyl)-2-hydroxy-2-methylpentan-3-yl)-1H-indol-4-yl)methane sulfonamide]
5 | < 100 | CCC(c1ccc(Cl)cc1)(n1ncc2c(NS(C)(=O)=O)cccc21)C(C)(C)O (single isomer, unassigned) [Compound 92, N-(1-(3-(4-chlorophenyl)-2-hydroxy-2-methylpentan-3-yl)-1H-indazol-4-yl)methane sulfonamide]
6 | < 100 | CCC(c1ccc(C(F)(F)F)cc1)(n1ncc2c(NS(C)(=O)=O)cccc21)C(C)(C)O (single isomer, unassigned) [Compound 93, N-(1-(2-hydroxy-2-methyl-3-(4-(trifluoromethyl)phenyl)pentan-3-yl)-1H-indazol-4-yl)methane sulfonamide]
7 | < 100 | CCC(COC)(c1ccc(Cl)cc1)n1ccc2c(NS(C)(=O)=O)cccc21 (single isomer, unassigned) [Compound 96, N-(1-(2-(4-chlorophenyl)-1-methoxybutan-2-yl)-1H-indol-4-yl)methanesulfonamide]
8 | < 100 | CCC(COC)(c1ccc(Cl)cc1)n1ncc2c(NS(C)(=O)=O)cccc21 (single isomer, unassigned) [Compound 97, N-(1-(2-(4-chlorophenyl)-1-methoxybutan-2-yl)-1H-indazol-4-yl)methanesulfonamide]
9 | < 100 | CCC(C(C)=O)(c1ccc(Cl)cc1)n1ncc2c(NS(C)(=O)=O)cccc21 (single isomer, unassigned) [Compound 100, N-(1-(3-(4-chlorophenyl)-2-oxopentan-3-yl)-1H-indazol-4-yl)methanesulfonamide]
10 | 100 to 500 | CCC(C(C)=O)(c1ccc(Cl)cc1)n1ncc2c(NS(C)(=O)=O)cccc21 (single isomer, unassigned) [Compound 101, N-(1-(3-(4-chlorophenyl)-2-oxopentan-3-yl)-1H-indazol-4-yl)methanesulfonamide]
11 | 100 to 500 | CCC(C(C)=O)(c1ccc(C(F)(F)F)cc1)n1ccc2c(NS(C)(=O)=O)cccc21 (single isomer, unassigned) [Compound 102, N-(1-(2-oxo-3-(4-(trifluoromethyl)phenyl)pentan-3-yl)-1H-indol-4-yl)methanesulfonamide]
12 | 100 to 500 | CCC(C(C)=O)(c1ccc(C(F)(F)F)cc1)n1ccc2c(NS(C)(=O)=O)cccc21 (single isomer, unassigned) [Compound 103, N-(1-(2-oxo-3-(4-(trifluoromethyl)phenyl)pentan-3-yl)-1H-indol-4-yl)methanesulfonamide]
13 | 100 to 500 | CCC(C(C)=O)(c1ccc(C(F)(F)F)cc1)n1ncc2c(NS(C)(=O)=O)cccc21 (single isomer, unassigned) [Compound 104, N-(1-(2-oxo-3-(4-(trifluoromethyl)phenyl)pentan-3-yl)-1H-indazol-4-yl)methanesulfonamide]
14 | < 100 | CCC(c1ccc(Cl)cc1)(C(C)O)n1ncc2c(NS(C)(=O)=O)cccc21 (single isomer, unassigned) [Compound 106]
15 | < 100 | CCC(c1ccc(Cl)cc1)(C(C)O)n1ncc2c(NS(C)(=O)=O)cccc21 (single isomer, unassigned) [Compound 107]
16 | < 100 | CCC(c1ccc(Cl)cc1)(C(C)O)n1ccc2c(NS(C)(=O)=O)cccc21 (single isomer, unassigned) [Compound 108, N-(1-(3-(4-chlorophenyl)-2-hydroxypentan-3-yl)-1H-indol-4-yl)methanesulfonamide]
17 | < 100 | CCC(c1ccc(Cl)cc1)(C(C)O)n1ccc2c(NS(C)(=O)=O)cccc21 (single isomer, unassigned) [Compound 109, N-(1-(3-(4-chlorophenyl)-2-hydroxypentan-3-yl)-1H-indol-4-yl)methanesulfonamide]
18 | < 100 | CCC(c1ccc(Cl)cc1)(C(C)O)n1ccc2c(NS(C)(=O)=O)cc(F)cc21 (single isomer, unassigned) [Compound 111, N-(1-(3-(4-chlorophenyl)-2-hydroxypentan-3-yl)-6-fluoro-1H-indol-4-yl)methanesulfonamide]
19 | < 100 | CCC(c1ccc(C(F)(F)F)cc1)(C(C)O)n1ccc2c(NS(C)(=O)=O)cccc21 (single isomer, unassigned) [Compound 113, N-(1-(2-hydroxy-3-(4-(trifluoromethyl)phenyl)pentan-3-yl)-1H-indol-4-yl)methanesulfonamide]
20 | < 100 | CCC(c1ccc(C(F)(F)F)cc1)(C(C)O)n1ccc2c(NS(C)(=O)=O)cccc21 (single isomer, unassigned) [Compound 114, N-(1-(2-hydroxy-3-(4-(trifluoromethyl)phenyl)pentan-3-yl)-1H-indol-4-yl)methanesulfonamide]
21 | < 100 | CCC(c1ccc(C(F)(F)F)cc1)(C(C)O)n1ncc2c(NS(C)(=O)=O)cccc21 (single isomer, unassigned) [Compound 115, N-(1-(2-hydroxy-3-(4-(trifluoromethyl)phenyl)pentan-3-yl)-1H-indazol-4-yl)methanesulfonamide]
22 | < 100 | CCC(c1ccc(C(F)(F)F)cc1)(C(C)O)n1ncc2c(NS(C)(=O)=O)cccc21 (single isomer, unassigned) [Compound 116, N-(1-(2-hydroxy-3-(4-(trifluoromethyl)phenyl)pentan-3-yl)-1H-indazol-4-yl)methanesulfonamide]
23 | < 100 | CCC(c1ccc(C(F)(F)F)cc1)(C(C)O)n1ncc2c(NS(C)(=O)=O)cccc21 (single isomer, unassigned) [Compound 117, N-(1-(2-hydroxy-3-(4-(trifluoromethyl)phenyl)pentan-3-yl)-1H-indazol-4-yl)methanesulfonamide]
24 | < 100 | CCC(CC#N)(c1ccc(Cl)cc1)n1ccc2c(NS(C)(=O)=O)cccc21 (single isomer, unassigned) [Compound 121, N-(1-(2-(4-chlorophenyl)-1-cyanobutan-2-yl)-1H-indol-4-yl)methanesulfonamide]
25 | < 100 | CCC(CC#N)(c1ccc(Cl)cc1)n1ccc2c(NS(C)(=O)=O)cccc21 (single isomer, unassigned) [Compound 122, N-(1-(2-(4-chlorophenyl)-1-cyanobutan-2-yl)-1H-indol-4-yl)methanesulfonamide]
26 | < 100 | CCC(CC#N)(c1ccc(Cl)cc1)n1ncc2c(NS(C)(=O)=O)cccc21 (single isomer, unassigned) [Compound 123, N-(1-(2-(4-chlorophenyl)-1-cyanobutan-2-yl)-1H-indazol-4-yl)methanesulfonamide]
27 | 100 to 500 | CCC(CC#N)(c1ccc(Cl)cc1)n1ccc2c(NS(C)(=O)=O)cc(F)cc21 (single isomer, unassigned) [Compound 124, N-(1-(2-(4-chlorophenyl)-1-cyanobutan-2-yl)-6-fluoro-1H-indol-4-yl)methanesulfonamide]
